Assays:
ATF4 = test: Immunoblot of ATF4 protein levels in rat insular cortex (IC); type: in vivo; settings: 1 μl, 100 nM injection to the IC; n=16; data not shown
Protocol: The rats were cannulated as described in Barki-Harrington et al. (2009). Briefly, the rats were anesthetized by administration of equithesin (0.3 ml/100 g), comprising 2.12% (w/v) MgSO4, 10% (v/v) ethanol, 39.1% (v/v) propyleneglycol, 0.98% (w/v) sodium pentobarbital, and 4.2% (w/v) chloral hydrate. They were restrained in a stereotactic frame (Steolting Europe, Dublin-Ireland) and stainless steel guide cannulae (23-gauge) were bilaterally implanted into the insular cortex, angled at (with reference to bregma), anteroposterior=+1.2 mm, lateral±5.5 mm, and ventral 5.0 mm (1 mm ahead of injecting cannula). Two skull screws were inserted into the skull, and acrylic dental cement was applied to secure the cannulae in position. […]
At the end of the behavioral procedure, the brains were removed, and snap-frozen in liquid nitrogen. […] Protein content was determined with the BCA Protein Assay Kit (GE Healthcare). […]
Samples were prepared in SDS sample buffer, subjected to 7.5-10% SDS-PAGE and Western blot analysis. […] The immunoblots were quantified with a CCD camera and Quantity One software (Bio-Rad, USA). Each sample was measured relative to the background. Phosphorylation levels were calculated as the ratio between chemiluminescence values of the antibody directed against the phosphoproteins and those of the antibody directed against the phosphorylation state independent forms of the proteins.

PERK = target: T1, PERK (Mus musculus, UniProt Q9Z2B5); type: in vivo
T1 construct: from tissue; host or cells: CA1 region of the hippocampus of C57BL/6 mice, in vivo
T1 sequence (Q9Z2B5 29-1114): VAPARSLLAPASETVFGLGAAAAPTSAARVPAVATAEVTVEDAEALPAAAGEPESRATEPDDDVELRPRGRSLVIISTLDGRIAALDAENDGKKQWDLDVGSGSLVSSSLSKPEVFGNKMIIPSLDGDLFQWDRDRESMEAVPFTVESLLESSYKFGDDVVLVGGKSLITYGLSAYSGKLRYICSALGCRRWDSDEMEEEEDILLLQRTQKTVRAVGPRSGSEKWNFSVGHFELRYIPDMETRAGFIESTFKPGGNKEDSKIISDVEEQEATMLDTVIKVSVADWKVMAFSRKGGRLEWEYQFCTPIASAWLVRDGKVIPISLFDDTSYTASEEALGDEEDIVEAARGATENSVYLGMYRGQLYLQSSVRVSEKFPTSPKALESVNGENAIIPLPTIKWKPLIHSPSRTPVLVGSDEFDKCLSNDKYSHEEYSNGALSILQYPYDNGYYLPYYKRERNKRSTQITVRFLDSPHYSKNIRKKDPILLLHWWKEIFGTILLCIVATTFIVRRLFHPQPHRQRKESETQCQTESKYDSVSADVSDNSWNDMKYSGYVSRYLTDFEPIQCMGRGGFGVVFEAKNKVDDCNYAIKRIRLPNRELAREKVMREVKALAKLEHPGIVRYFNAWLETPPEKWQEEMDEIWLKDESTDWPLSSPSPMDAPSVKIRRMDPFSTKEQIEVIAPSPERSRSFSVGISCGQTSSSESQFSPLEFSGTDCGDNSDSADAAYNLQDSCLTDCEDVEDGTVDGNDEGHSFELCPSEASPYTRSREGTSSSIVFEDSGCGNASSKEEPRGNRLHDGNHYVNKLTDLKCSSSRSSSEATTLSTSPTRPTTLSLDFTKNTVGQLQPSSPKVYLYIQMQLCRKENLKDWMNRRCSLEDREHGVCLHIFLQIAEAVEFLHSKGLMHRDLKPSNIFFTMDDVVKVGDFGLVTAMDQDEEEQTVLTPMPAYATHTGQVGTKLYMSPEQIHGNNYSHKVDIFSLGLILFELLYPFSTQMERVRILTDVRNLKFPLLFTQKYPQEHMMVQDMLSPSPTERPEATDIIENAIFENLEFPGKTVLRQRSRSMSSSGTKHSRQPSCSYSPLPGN
Excerpt: Animals were anesthetized under 2% isoflurane using an isoflurane table top unit (HME109, Highland Medical Equipment). Under aseptic conditions, a rodent stereotaxic apparatus (Kopf Stereotaxic Alignment System Model 1900) with continuous 1% isoflurane anesthesia was used. For CA1 infusion cannula was implanted bilaterally into the CA1 region (from the bregma: −1.94 mm AP, ±1.0 mm ML, −1.0 mm DV). The implanted cannula was cemented on the skull. Each cannula was fitted with a 28 gauge dummy cannula that extended 0.1 mm beyond the tip of the guide cannula to prevent blockage of the guide cannula. After cannulation, mice were allowed to recover for 7 days before infusion of PERK inhibitor or vehicle and behavior. On conditioning day, randomly assigned mice were infused with 100 nM PERK inhibitor GSK2606414 (Axten et al., 2012) dissolved in dimethyl sulfoxide (DMSO) and further diluted in saline to a final DMSO concentration of 0.5%, via a 28-gauge infusion cannula connected by polyethylene (PE 20) tubing to a 10 μL Hamilton microsyringe (Hamilton Company). The infusion cannula protruded 0.25 mm beyond the guide cannula. For CA1 administration, infusion volume of 1 μl of 100 nM GSK2606414 or vehicle was delivered using a Harvard PHD2000 syringe pump (Harvard Apparatus) over the course of 1 min (at a rate of 1 μL/min). After infusion, the injection cannula was kept in the guide cannula for an additional minute to minimize dragging of infused solutes along the injection tract. Locations of cannula were verified in 30 μm coronal sections.
Model chambers measuring 25×25×25 cm internally (Panlab, Harvard Apparatus) were located inside a larger, insulated plastic cabinet that excluded external light and noise. For the trace fear conditioning protocol, mice were placed in a chamber (with light [20 W bulb] and a 16 bar metal grid floor) for 120 s, after which the mice received a 2.9 kHz tone, applied for 20 s at 80 dB (conditioned stimulus) and a 0.5 mA footshock applied for 2 s (unconditioned stimulus) 20 s following the end of the conditioned stimulus. This protocol was repeated 5 times, where each tone-shock presentation was separated by a 2-minute interval. After administration of the last shock, animals remained in the chamber for 2 minutes before they were taken back to the home cage. The chambers were cleaned with 10% ethanol between successive sets of mice. Animals from control and treatment groups were randomized between the 4 different chambers.

[1] = 100 nM bilateral infusion to CA1 50 min prior to acquisition, 48 h after conditioning, vs vehicle

Cn1cc(-c2ccc3c(c2)CCN3C(=O)Cc2cccc(C(F)(F)F)c2)c2c(N)ncnc21 [GSK2606414, 7-methyl-5-(1-{[3-(trifluoromethyl)phenyl]acetyl}-2,3-dihydro-1H-indol-5-yl)-7H-pyrrolo[2,3-d]pyrimidin-4-amine]
reduction in ATF4 protein levels (ATF4): 30%
freezing during tone presentation (tone memory) (PERK; [1]): enhanced freezing
freezing in the trace interval following the tone (trace memory) (PERK; [1]): enhanced freezing
context memory (freezing) (PERK; 100 nM bilateral infusion to CA1, 24 h after conditioning, vs vehicle): not altered
extinction (cue and trace) (PERK; 100 nM infusion to CA1 at the time of conditioning): no effect

— patent publication US10246712B2, “Genetic or pharmacological reduction of PERK enhances cortical- and hippocampus-dependent cognitive function” (Carmel-Haifa University Economic Corp. Ltd, priority 2015, dated 2019)
